Tested on: anaerobia
Assay: spontaneous anaerobic fermentation of flour paste sealed with rapeseed oil
Type: cell-based

SMILES: O=C([O-])C(=O)[O-].[Na+].[Na+] [sodium oxalate]
- aqueous solution above the settled flour: clear and transparent

SMILES: O=CO [formic acid]
- aqueous solution above the settled flour: clear and transparent

Source: patent publication US20200121716A1, “Method for Inhibiting Both Glycolysis and Glutamine Metabolism in Cells and Use Thereof” (priority 2017, published 2020)
